Results on three compounds are retold here after BindingDB's records for doi:10.1021/jm9801197 (Kennesaw State University, 1999).

In general, Ki refers to the dissociation constant of the complex between target and ligand, obtained from inhibition or displacement.

Structures are written as SMILES.

The nature of assay [1]: Compound was evaluated for its binding affinity against Cannabinoid receptor 1 in Guinea pig ileum (GPI) using [3H]SR-141,716A ligand.
Assay [2] can be described thus: Compound was evaluated for its binding affinity against Cannabinoid receptor 1 in Guinea pig ileum (GPI) using [3H]CP-55940 ligand.
A short description of assay [3]: Compound was evaluated for its binding affinity against Cannabinoid receptor 2 in Guinea pig ileum (GPI) using [3H]CP-55940 ligand.
Assay [4] in a line: Compound was evaluated for its binding affinity against Cannabinoid receptor 1 in Guinea pig ileum (GPI) using [3H]SR-141,716A ligand at site 2.
Assay [5] in a line: Compound was evaluated for its binding affinity against Cannabinoid receptor 1 in Guinea pig ileum (GPI) using [3H]SR-141,716A ligand at site 1.

`C1=C(CCN2CCOCC2)c2ccccc2/C1=C\c1cccc2ccccc12` [4-(2-{3-[1-Naphthalen-1-yl-meth-(Z)-ylidene]-3H-inden-1-yl}-ethyl)-morpholine]: the Ki in assay [1] worked out at 928 nM; in assay [2] it was 148 nM; in assay [3], 132 nM.
For the compound `C1=C(CCN2CCOCC2)c2ccccc2/C1=C/c1cccc2ccccc12` [4-(2-{3-[1-Naphthalen-1-yl-meth-(E)-ylidene]-3H-inden-1-yl}-ethyl)-morpholine], the Ki in assay [2] was 2.7 nM; in assay [4], 611 nM; in assay [3], 2.7 nM; in assay [5] it was 11 nM.
Turning to `CC1=C(CCN2CCOCC2)c2ccccc2/C1=C/c1cccc2ccccc12` [4-(2-{2-Methyl-3-[1-naphthalen-1-yl-meth-(Z)-ylidene]-3H-inden-1-yl}-ethyl)-morpholine], the Ki in assay [3] came to 2.1 nM.
